Structures can show the parent of a compound that is named as a salt.

In the assay the target is T1, mPGES-1 (Homo sapiens, UniProt O14684).
T1 construct: made in house; host or cells: E. coli
T1 sequence (O14684 1-152): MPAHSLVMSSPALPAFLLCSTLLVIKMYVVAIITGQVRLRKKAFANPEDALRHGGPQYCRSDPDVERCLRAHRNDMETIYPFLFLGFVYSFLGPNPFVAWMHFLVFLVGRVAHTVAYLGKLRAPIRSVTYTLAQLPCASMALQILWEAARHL
The assay is described as follows: mPGES-1 biological test (conversion of PGH2 to PGE2, HPLC read-out). The assay is classed as biochemical. The conditions noted are these: mPGES-1 expressed in E. coli, membrane fraction; 25 min pre-incubation with inhibitor, 60 s with PGH2, room temperature; read-out: IC50 (inhibition of mPGES-1). The procedure:
In the assay mPGES-1 catalyses the reaction where the substrate PGH2 is converted to PGE2. mPGES-1 is expressed in E. coli and the membrane fraction is dissolved in 20 mM NaPi-buffer pH 8.0 and stored at −80° C. In the assay mPGES-1 is dissolved in 0.1M KPi-buffer pH 7.35 with 2.5 mM glutathione. The stop solution consists of H2O/MeCN (7/3), containing FeCl2 (25 mM) and HCl (0.15 M). The assay is performed at room temperature in 96-well plates. Analysis of the amount of PGE2 is performed with reversed phase HPLC (Waters 2795 equipped with a 3.9×150 mm C18 column). The mobile phase consists of H2O/MeCN (7/3), containing TFA (0.056%), and absorbance is measured at 195 nm with a Waters 2487 UV-detector.
The following is added chronologically to each well: • 1. 100 μL mPGES-1 in KPi-buffer with glutathione. Total protein concentration: 0.02 mg/mL. • 2. 1 μL inhibitor in DMSO. Incubation of the plate at room temperature for 25 minutes. • 3. 4 μL of a 0.25 mM PGH2 solution. Incubation of the plate at room temperature for 60 seconds. • 4. 100 μL stop solution. • 180 μL per sample is analyzed with HPLC.
For the compound `CC(C)Oc1ccc(-n2c(C(=O)O)c(CN3CCOCC3)c3cc(-c4ccc(C(C)(C)C)cc4)ccc32)cc1` [Example 2, 5-(4-tert-Butylphenyl)-1-(4-isopropoxyphenyl)-3-morpholin-4-ylmethylindole-2-carboxylic acid], the concentration for half-maximal inhibition (IC50) turned out to be 2.6 µM.

As to `CC(C)Oc1ccc(-n2c(C(=O)O)c(CN(C)C)c3cc(-c4ccc(C(C)(C)C)cc4)ccc32)cc1` [Example 8, 5-(4-tert-Butylphenyl)-3-dimethylaminomethyl-1-(4-isopropoxyphenyl)indole-2-carboxylic acid], the IC50 is 0.56 µM. As for `CC(C)Oc1ccc(-n2c(C(=O)O)c(CNC(CO)CO)c3cc(-c4ccc(C(F)(F)F)cn4)ccc32)cc1` [Example 9, 3-[(1,3-dihydroxypropan-2-ylamino)methyl]-1-(4-isopropoxyphenyl)-5-(5-trifluoromethylpyridin-2-yl)indole-2-carboxylic acid dihydrochloride], the IC50 was 2.1 µM. The value for `CC(C)(C)c1ccc(-c2ccc3c(c2)cc(CCC(=O)O)n3-c2ccc(OC3CCCC3)cc2)cc1` [Example 29, 3-[5-(4-tert-Butylphenyl)-1-(4-cyclopentyloxyphenyl)indol-2-yl]-propionic acid] was 0.78 µM.

For the compound `CC(C)Oc1ccc(-n2c(CC(=O)O)cc3cc(Oc4ccc(Cl)cc4)ccc32)cc1` [Example 32, [5-(4-Chlorophenoxy)-1-(4-isopropoxyphenyl)indol-2-yl]acetic acid], the 50% inhibitory concentration (IC50) was found to be 3.2 µM.

For the origin of these results see US20100197687A1, “Indoles Useful in the Treatment of Inflammation” (priority 2005, published 2010).
